Measurements published in patent US20230077362A1 (CORTEVA AGRISCIENCE LLC, priority 2019, published 2023).
Like-named read-outs stand apart in the source and are kept apart here.

Columns and labels:
[1] = tested on: Beet Armyworm (Spodoptera exigua) ("BAW"), second instar larvae; test: Bioassay on beet armyworm (BAW), 128-well diet tray assay; type: in vivo; conditions: for pest or weed control at 50 µg/cm2: Spodoptera exigua; for BAW rating: Table ABC, species BAW, C = not tested, D = no activity noticed
In short: (§1)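 Second-instar larvae on diet in 128-well trays, covered and held at 25° C, 14:10 light-dark, for five to seven days. Percent mortality scored per well and averaged over eight wells; activity reported as a rating category.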

[2] = tested on: Cabbage Looper (Trichoplusia ni) ("CL"), second instar larvae; test: Bioassay on cabbage looper (CL), 128-well diet tray assay; type: in vivo; conditions: for pest or weed control at 50 µg/cm2: Trichoplusia ni; for CL rating: Table ABC, species CL, C = not tested, D = no activity noticed
In short: as §1

[3] = read-out: BAW (Biological Results, rating)
[4] = read-out: CL (Biological Results, rating)

| Compound | pest or weed control at 50 µg/cm2 [1, 3] [%] | pest or weed control at 50 µg/cm2 [2, 4] [%] | BAW rating [1] | CL rating [2] | pest or weed control at 50 µg/cm2 ([1]; read-out: BAW rating) [%] | pest or weed control at 50 µg/cm2 ([2]; read-out: CL rating) [%] |
| --- | --- | --- | --- | --- | --- | --- |
| Cc1ccc(COCC(F)(F)F)c(N2C(=O)CS/C2=N\C(=O)Nc2ccc(-c3ncn(-c4ccc(OC(F)(F)F)cc4)n3)cc2C(F)(F)F)c1 [Compound J165, (Z)-1-(3-(5-Methyl-2-((2,2,2-trifluoroethoxy)methyl)phenyl)-4-oxothiazolidin-2-ylidene)-3-(4-(1-(4-(trifluoromethoxy)phenyl)-1H-1,2,4-triazol-3-yl)-2-(trifluoromethyl)phenyl)urea] | 50 to 100 | 50 to 100 | – | – | – | – |
| Cc1ccc(C(F)(F)F)c(N2C(=O)CS/C2=N\C(=O)Nc2ccc(-c3ncn(-c4ccc(OC(F)(F)F)cc4)n3)cc2Cl)c1 [Compound J39, (Z)-1-(2-Chloro-4-(1-(4-(trifluoromethoxy)phenyl)-1H-1,2,4-triazol-3-yl)phenyl)-3-(3-(5-methyl-2-(trifluoromethyl)phenyl)-4-oxothiazolidin-2-ylidene)urea] | 50 to 100 | 50 to 100 | – | – | – | – |
| CCOCc1ccc(C)cc1N1C(=O)CS/C1=N\C(=O)Nc1ccc(-c2ncn(-c3cccc(OC(F)(F)F)c3)n2)cc1C [Compound J726] | – | – | A (50-100) | A (50-100) | – | – |
| Cc1ccc(C(C)C)c(N2C(=O)CS/C2=N\C(=O)Nc2ccc(-c3cn(-c4ccc(OC(F)(F)F)cc4)cn3)cc2C)c1 [Compound J477, (Z)-1-(3-(2-Isopropyl-5-methylphenyl)-4-oxothiazolidin-2-ylidene)-3-(2-methyl-4-(1-(4-(trifluoromethoxy)phenyl)-1H-imidazol-4-yl)phenyl)urea] | – | – | – | – | 50 to 100 | 50 to 100 |
| CC(C)c1ccc(N(C)C)cc1N1C(=O)CS/C1=N\C(=O)Nc1ccc(-c2nc(-c3ccc(OC(F)(F)F)cc3)no2)cc1F [Compound J435, (Z)-1-(3-(5-(dimethylamino)-2-isopropylphenyl)-4-oxothiazolidin-2-ylidene)-3-(2-fluoro-4-(3-(4-(trifluoromethoxy)phenyl)-1,2,4-oxadiazol-5-yl)phenyl)urea] | – | – | – | – | 50 to 100 | 50 to 100 |
| (Z)-1-(2-Fluoro-4-(1-(4-(trifluoromethoxy)phenyl)-1H-1,2,4-triazol-3-yl)phenyl)-3-(3-(5-methyl-2-((thiophen-3-ylmethoxy)methyl)phenyl)-4-oxothiazolidin-2-ylidene)urea [Compound J623] | – | – | A (50-100) | A (50-100) | – | – |
| COc1ccc(C(C)C)c(N2C(=O)CS/C2=N\C(=O)Nc2ccc(-c3ncn(-c4ccc(OCC(F)(F)F)cc4)n3)cc2F)c1 [Compound J58, (Z)-1-(2-Fluoro-4-(1-(4-(2,2,2-trifluoroethoxy)phenyl)-1H-1,2,4-triazol-3-yl)phenyl)-3-(3-(2-isopropyl-5-methoxyphenyl)-4-oxothiazolidin-2-ylidene)urea] | 50 to 100 | 50 to 100 | – | – | – | – |
| Cc1ccc(COCC(F)(F)F)c(N2C(=O)CS/C2=N\C(=O)Nc2ccc(-c3ncn(-c4cccc(C(F)(F)F)c4)n3)cc2F)c1 [Compound J710] | – | – | A (50-100) | A (50-100) | – | – |
| COc1ccc(C(C)C)c(N2C(=O)CS/C2=N\C(=O)Nc2ccc(-c3ncn(-c4ccc(C(F)(F)F)cc4)n3)cc2OC)c1 [Compound J10, (Z)-1-(3-(2-Isopropyl-5-methoxyphenyl)-4-oxothiazolidin-2-ylidene)-3-(2-methoxy-4-(1-(4-(trifluoromethyl)phenyl)-1H-1,2,4-triazol-3-yl)phenyl)urea] | 50 to 100 | 50 to 100 | – | – | – | – |
| COC(C)c1ccc(C#N)cc1N1C(=O)CS/C1=N\C(=O)Nc1ccc(-c2cn(-c3ccc(S(F)(F)(F)(F)F)cc3)cn2)cc1F (centres unmarked) [Compound J606, (Z)-1-(3-(5-Cyano-2-(1-methoxyethyl)phenyl)-4-oxothiazolidin-2-ylidene)-3-(2-fluoro-4-(1-(4-(pentafluoro-λ^6-sulfaneyl)phenyl)-1H-imidazol-4-yl)phenyl)urea] | – | – | – | – | 50 to 100 | 50 to 100 |
